Laboratory results taken from the CheMixHub viscosity set.

Test: xn = mol fraction of the nth substance listed

CCOC(=O)c1ccccc1 + CCCCCC
101 kPa
Conditions	viscosity [mPa·s]
298.15 K, x2 = 0.0271	1.845
298.15 K, x2 = 0.1115	1.528
298.15 K, x2 = 0.1588	1.375
298.15 K, x2 = 0.2058	1.242
298.15 K, x2 = 0.3029	1.008
298.15 K, x2 = 0.3991	0.828
298.15 K, x2 = 0.4898	0.688
298.15 K, x2 = 0.5921	0.57
298.15 K, x2 = 0.6377	0.527
298.15 K, x2 = 0.6782	0.491
298.15 K, x2 = 0.7316	0.456
298.15 K, x2 = 0.773	0.426
298.15 K, x2 = 0.8227	0.394
298.15 K, x2 = 0.8654	0.371
298.15 K, x2 = 0.9101	0.354
298.15 K, x2 = 0.9517	0.341
303.15 K, x1 = 0.0927	0.329
303.15 K, x1 = 0.1853	0.38
303.15 K, x1 = 0.2811	0.448
303.15 K, x1 = 0.3781	0.531
303.15 K, x1 = 0.4761	0.634
303.15 K, x1 = 0.5765	0.764
303.15 K, x1 = 0.6794	0.93
303.15 K, x1 = 0.7852	1.147
303.15 K, x1 = 0.8902	1.41
308.15 K, x1 = 0.0927	0.315
308.15 K, x1 = 0.1853	0.366
308.15 K, x1 = 0.2811	0.429
308.15 K, x1 = 0.3781	0.508
308.15 K, x1 = 0.4761	0.603
308.15 K, x1 = 0.5765	0.72
308.15 K, x1 = 0.6794	0.877
308.15 K, x1 = 0.7852	1.065
308.15 K, x1 = 0.8902	1.303
308.15 K, x2 = 0.0828	1.413
308.15 K, x2 = 0.1328	1.29
308.15 K, x2 = 0.171	1.201
308.15 K, x2 = 0.2301	1.074
308.15 K, x2 = 0.2802	0.973
308.15 K, x2 = 0.3274	0.887
308.15 K, x2 = 0.3722	0.812
308.15 K, x2 = 0.4224	0.741
308.15 K, x2 = 0.4708	0.677
308.15 K, x2 = 0.5165	0.624
308.15 K, x2 = 0.5609	0.576
308.15 K, x2 = 0.6066	0.533
308.15 K, x2 = 0.6587	0.489
308.15 K, x2 = 0.7033	0.457
308.15 K, x2 = 0.7489	0.426
308.15 K, x2 = 0.7953	0.397
308.15 K, x2 = 0.8419	0.372
308.15 K, x2 = 0.8794	0.356
308.15 K, x2 = 0.9354	0.331
313.15 K, x1 = 0.0927	0.295
313.15 K, x1 = 0.1853	0.346
313.15 K, x1 = 0.2811	0.406
313.15 K, x1 = 0.3781	0.476
313.15 K, x1 = 0.4761	0.562
313.15 K, x1 = 0.5765	0.673
313.15 K, x1 = 0.6794	0.815
313.15 K, x1 = 0.7852	0.99
313.15 K, x1 = 0.8902	1.2
318.15 K, x2 = 0.0471	1.244
318.15 K, x2 = 0.1005	1.133
318.15 K, x2 = 0.149	1.036
318.15 K, x2 = 0.2038	0.939
318.15 K, x2 = 0.252	0.861
318.15 K, x2 = 0.3057	0.781
318.15 K, x2 = 0.352	0.718
318.15 K, x2 = 0.4057	0.652
318.15 K, x2 = 0.4516	0.602
318.15 K, x2 = 0.5027	0.55
318.15 K, x2 = 0.5475	0.51
318.15 K, x2 = 0.5991	0.47
318.15 K, x2 = 0.6439	0.439
318.15 K, x2 = 0.6933	0.41
318.15 K, x2 = 0.7382	0.387
318.15 K, x2 = 0.7869	0.364
318.15 K, x2 = 0.8296	0.346
318.15 K, x2 = 0.878	0.327

CC(C)O + CCCCO
298.15 K, 101 kPa
Conditions	viscosity [mPa·s]
x2 = 0.1026	2.057
x2 = 0.2012	2.105
x2 = 0.302	2.145
x2 = 0.4045	2.207
x2 = 0.5086	2.269
x2 = 0.6002	2.327
x2 = 0.734	2.402
x2 = 0.7964	2.437
x2 = 0.9021	2.506

CC1CCCCC1 + CCCCCO
303.15 K, 101.33 kPa
Conditions	viscosity [mPa·s]
x1 = 0.0947	2.283
x1 = 0.2614	1.737
x1 = 0.42	1.289
x1 = 0.5783	0.968
x1 = 0.7422	0.777
x1 = 0.9027	0.663
x2 = 0.1011	0.7025
x2 = 0.2073	0.7951
x2 = 0.3017	0.8911
x2 = 0.4214	1.039
x2 = 0.4998	1.16
x2 = 0.5988	1.325
x2 = 0.7007	1.535
x2 = 0.8084	1.852
x2 = 0.9144	2.305

O=C(O)/C=C\C(=O)O + O
viscosity [mPa·s], 101.32 kPa
Conditions	x1 = 0.0171	x1 = 0.03648	x1 = 0.06231	x1 = 0.0943	x1 = 0.145
298.15 K	1.092	1.349	1.775	2.459	–
313.15 K	0.792	0.968	1.255	1.702	2.54

CCOC(=O)c1ccccc1 + COCCOCCOC
viscosity [mPa·s], 101.33 kPa
Conditions	x2 = 0.1021	x2 = 0.2028	x2 = 0.3004	x2 = 0.4044	x2 = 0.5041	x2 = 0.6032	x2 = 0.7035	x2 = 0.8017	x2 = 0.9022
298.15 K	1.805	1.694	1.59	1.485	1.389	1.301	1.216	1.134	1.056
303.15 K	1.629	1.533	1.442	1.35	1.266	1.189	1.111	1.039	0.967
308.15 K	1.476	1.39	1.311	1.231	1.157	1.088	1.02	0.957	0.895
313.15 K	1.342	1.268	1.198	1.126	1.062	1	0.94	0.883	0.829
318.15 K	1.228	1.161	1.098	1.035	0.976	0.922	0.868	0.818	0.77

CCCNCCC + CCO
viscosity [mPa·s], 101.33 kPa
Conditions	x1 = 0.0942	x1 = 0.1946	x1 = 0.3116	x1 = 0.4115	x1 = 0.5186	x1 = 0.6176	x1 = 0.7061	x1 = 0.8005	x1 = 0.9058
303.15 K	1.05	1.048	0.9952	0.9229	0.8291	0.7485	0.6803	0.6208	0.56
313.15 K	0.8212	0.7926	0.7448	0.6985	0.6485	0.5986	0.5562	0.51	0.4624

CCCCCCCCCl + CCCCCCCCCCCC
298 K, 101.3 kPa
Conditions	viscosity [mPa·s]
x2 = 0.1064	1.143
x2 = 0.2068	1.151
x2 = 0.308	1.177
x2 = 0.4061	1.185
x2 = 0.5066	1.218
x2 = 0.6038	1.232
x2 = 0.6927	1.262
x2 = 0.7984	1.288
x2 = 0.8945	1.317

C1=CCCCC1 + ClC(Cl)(Cl)Cl
303.15 K, 101 kPa
Conditions	viscosity [mPa·s]
x1 = 0.1014	0.875
x1 = 0.2018	0.839
x1 = 0.3213	0.8
x1 = 0.4018	0.775
x1 = 0.5046	0.74
x1 = 0.5562	0.722
x1 = 0.6526	0.688
x1 = 0.7514	0.653
x1 = 0.9049	0.603
